One test deals with T1, HDAC-1 (Homo sapiens, UniProt Q13547).
T1 construct: made in house; host or cells: Sf9 or Sf21 insect cells (baculovirus, donor vector pFB-GSTX3)
In words: HDAC Inhibition Assay (purified GST-HDAC protein). Format: biochemical. The source says:
The baculovirus donor vector pFB-GSTX3 is used to generate a recombinant baculovirus that expresses the HDAC polypeptide. Transfer vectors containing the HDAC coding region are transfected into the DH10Bac cell line (GIBCO) and plated on selective agar plates. Colonies without insertion of the fusion sequence into the viral genome (carried by the bacteria) are blue. Single, white colonies are picked and viral DNAs (bacmid) are isolated from the bacteria by standard plasmid purification procedures. Sf9 cells or Sf21 (American Type Culture Collection) cells are then transfected in […] flasks with the viral DNA using Cellfectin reagent.
Virus-containing media is collected from the transfected cell culture and used for infection to increase its titer. Virus-containing media obtained after two rounds of infection is used for large-scale protein expression. For large-scale protein expression 100 cm^2 round tissue culture plates are seeded with 5×10^7 cells/plate and infected with 1 mL of virus-containing media (at an approximately MOI of 5). After 3 days, the cells are scraped off the plate and centrifuged at 500 rpm for 5 minutes. Cell pellets from 10-20, 100 cm^2 plates, are re-suspended in 50 mL of ice-cold lysis buffer (25 mM tris-HCl, pH 7.5, 2 mM EDTA, 1% NP-40, 1 mM DTT, 1 mM P MSF). The cells are stirred on ice for 15 minutes and then centrifuged at 5,000 rpms for 20 minutes.
The centrifuged cell lysate is loaded onto a 2 mL glutathione-sepharose column (Pharmacia) and is washed thrice with 10 mL of 25 mM tris-HCl, pH 7.5, 2 mM EDTA, 1 mM DTT, 200 mM NaCl. The GST-tagged proteins are then eluted by 10 applications (1 mL each) of 25 mM tris-HCl, pH 7.5, 10 mM reduced-glutathione, 100 mM NaCl, 1 mM DTT, 10% glycerol and stored at −70° C.
HDAC assays with purified GST-HDAC protein are carried out in a final volume of 30 μL containing 15 ng of GST-HDAC protein, 20 mM tris-HCl, pH 7.5, 1 mM MnCl2, 10 mM MgCl2, 1 mM DTT, 3 μg/mL poly(Glu,Tyr) 4:1, 1% DMSO, 2.0 μM ATP (γ-[^33P]-ATP 0.1 μCi). The activity is assayed in the presence or absence of inhibitors. The assay is carried out in 96-well plates at ambient temperature for 15 minutes under conditions described below and terminated by the addition of 20 μL of 125 mM EDTA. Subsequently, 40 μL of the reaction mixture are transferred onto EMMOBILON-PVDF membrane (Millipore) previously soaked for 5 minutes with methanol, rinsed with water, then soaked for 5 minutes with 0.5% H3PO4 and mounted on vacuum manifold with disconnected vacuum source. After spotting all samples, a vacuum is connected and each well-rinsed with 200 μL 0.5% H3PO4. Membranes are removed and washed four times on a shaker with 1.0% H3PO4, once with ethanol. Membranes are counted after drying at ambient temperature, mounting in Packard TopCount 96-well frame, and addition of 10 μL/well of MICROSCINT™ (Packard). IC50 values are calculated by linear regression analysis of the percentage inhibition of each compound in duplicate, at 4 concentrations (usually 0.01, 0.1, 1 and 10 μM).
• Input: 3×4 μL stopped assay on IMMOBILON membrane, not washed • Background (3 wells): assay with H2O instead of enzyme • Positive control (4 wells): 3% DMSO instead of compound • Bath control (1 well): no reaction mix
IC50 values are calculated by logarithmic regression analysis of the percentage inhibition of each compound at 4 concentrations (usually 3- or 10-fold dilution series starting at 10 μM). In each experiment, the actual inhibition by reference compound is used for normalization of IC50 values to the basis of an average value of the reference inhibitor:
Normalized IC50=measured IC50 average ref. IC50/measured ref. IC50

The subject of another test is HCT116. In words: HCT116 IC50 (Table 2, no method described). The note with it: Homo sapiens, HCT-116. Format: cell-based.

T1 sequence (Q13547 whole entry, species assumed): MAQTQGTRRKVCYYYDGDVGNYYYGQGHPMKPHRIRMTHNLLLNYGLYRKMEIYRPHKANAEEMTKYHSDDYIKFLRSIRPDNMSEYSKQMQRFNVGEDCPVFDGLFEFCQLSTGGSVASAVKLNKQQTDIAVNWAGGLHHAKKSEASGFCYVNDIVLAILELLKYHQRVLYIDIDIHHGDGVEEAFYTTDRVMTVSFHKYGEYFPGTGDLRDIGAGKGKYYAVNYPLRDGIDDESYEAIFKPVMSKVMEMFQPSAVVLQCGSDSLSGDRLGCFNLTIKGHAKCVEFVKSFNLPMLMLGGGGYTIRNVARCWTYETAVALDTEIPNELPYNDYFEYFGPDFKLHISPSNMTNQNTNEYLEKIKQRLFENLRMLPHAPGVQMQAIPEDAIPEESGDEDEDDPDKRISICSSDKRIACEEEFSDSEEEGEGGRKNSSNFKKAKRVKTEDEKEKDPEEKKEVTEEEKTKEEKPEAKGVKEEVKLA

With `O=C(/C=C/c1ccc(CN2CCC[C@H]2Cc2c[nH]c3ccccc23)cc1)NO` [Cpd 1, (E)-N-Hydroxy-3-{4-[(S)-2-(1H-indol-3-ylmethyl)-pyrrolidin-1-ylmethyl]-phenyl}-acrylamide], the IC50 (in general, the concentration needed to halve the response being measured) against HDAC-1 was found to be 10 nM; in the test on HCT116, 100 nM.

On to `O=C(/C=C/c1ccc(CN2CCC[C@@H]2Cc2c[nH]c3ccccc23)cc1)NO` [Cpd 2, (E)-N-Hydroxy-3-{4-[(R)-2-(1H-indol-3-ylmethyl)-pyrrolidin-1-ylmethyl]-phenyl}-acrylamide], for which the values for the IC50 against HDAC-1 and in the test on HCT116 were 0.65 nM and 3 nM, respectively.

On to `Cc1[nH]c2ccccc2c1C[C@H]1CCCN1Cc1ccc(/C=C/C(=O)NO)cc1` [Cpd 4, (E)-N-Hydroxy-3-{4-[(R)-2-(2-methyl-1H-indol-3-ylmethyl)-pyrrolidin-1-ylmethyl]-phenyl}-acrylamide], for which the concentration for half-maximal inhibition (IC50) at HDAC-1 was 0.65 nM; in the test on HCT116, 0.4 nM.

In turn, `CC(C)CC1CCCN1Cc1ccc(/C=C/C(=O)NO)cc1` (stereo not drawn) [Cpd 5, (E)-N-Hydroxy-3-[4-(2-isobutyl-pyrrolidin-1-ylmethyl)-phenyl]-acrylamide] gave a half-inhibitory concentration (IC50) on HDAC-1 of 8 nM. This lies in the single-digit nanomolar range.

Consider `O=C(/C=C/c1ccc(CN2CCCC2Cc2cccnc2)cc1)NO` (stereo not drawn) [Cpd 6, (E)-N-Hydroxy-3-[4-(2-pyridin-3-ylmethyl-pyrrolidin-1-ylmethyl)-phenyl]-acrylamide], for which the IC50 on HDAC-1 was 5 nM. Compared with the last compound, the IC50 is about 1.6-fold lower.

In the case of `O=C(/C=C/c1ccc(CN2CCC[C@H]2Cc2c[nH]c3ccccc23)c(F)c1)NO` [Cpd 8, (E)-3-{3-Fluoro-4-[(S)-2-(1H-indol-3-ylmethyl)-pyrrolidin-1-ylmethyl]-phenyl}-N-hydroxy-acrylamide], the IC50 came to 10 nM against HDAC-1 and 83 nM in the test on HCT116.

Regarding `O=C(/C=C/c1ccc(CN2CCC[C@@H]2Cc2c[nH]c3ccccc23)c(F)c1)NO` [Cpd 9, (E)-3-{3-Fluoro-4-[(R)-2-(1H-indol-3-ylmethyl)-pyrrolidin-1-ylmethyl]-phenyl}-N-hydroxy-acrylamide], the IC50 against HDAC-1 is 1.3 nM; in the test with HCT116 it was 3 nM.

As for `Cc1[nH]c2ccccc2c1C[C@H]1CCCN1Cc1ccc(/C=C/C(=O)NO)cc1F` [Cpd 10, (E)-3-{3-Fluoro-4-[(R)-2-(2-methyl-1H-indol-3-ylmethyl)-pyrrolidin-1-ylmethyl]-phenyl}-N-hydroxy-acrylamide], the IC50 against HDAC-1 was found to be 0.7 nM; with HCT116 it was 0.6 nM.

Turning to `O=C(/C=C/c1ccc(CN2CCC[C@H]2C(=O)c2c[nH]c3ccccc23)cc1)NO` [Cpd 11, (E)-N-Hydroxy-3-{4-[(S)-2-(1H-indole-3-carbonyl)-pyrrolidin-1-ylmethyl]-phenyl}-acrylamide], the IC50 against HDAC-1 worked out at 56 nM; in the test on HCT116, 560 nM.

Regarding `O=C(/C=C/c1ccc(CN2CCC[C@@H]2C(=O)c2c[nH]c3ccccc23)cc1)NO` [Cpd 12, (E)-N-Hydroxy-3-{4-[(R)-2-(1H-indole-3-carbonyl)-pyrrolidin-1-ylmethyl]-phenyl}-acrylamide], the IC50 was 38 nM against HDAC-1 and 520 nM with HCT116.

As for `Cc1[nH]c2ccccc2c1C[C@H]1CCCN1[C@@H](C)c1ccc(/C=C/C(=O)NO)cc1` [Cpd 14, (E)-N-Hydroxy-3-(4-{(S)-1-[(R)-2-(2-methyl-1H-indol-3-ylmethyl)-pyrrolidin-1-yl]-ethyl}-phenyl)-acrylamide], the figures for the IC50 at HDAC-1 and in the test on HCT116 were 1.3 nM and 2.4 nM, respectively.

For the compound `Cc1[nH]c2ccccc2c1C[C@H]1CCCN1[C@H](C)c1ccc(/C=C/C(=O)NO)cc1` [Cpd 15, (E)-N-Hydroxy-3-(4-{(R)-1-[(R)-2-(2-methyl-1H-indol-3-ylmethyl)-pyrrolidin-1-yl]-ethyl}-phenyl)-acrylamide], the figures for the IC50 against HDAC-1 and in the test on HCT116 were 1 nM and 3 nM, respectively.

`CC(c1ccc(/C=C/C(=O)NO)cc1)N1CCC[C@H]1CN1CCCC1` (stereo partly drawn) [Cpd 16, (E)-N-Hydroxy-3-{4-[1-((S)-2-pyrrolidin-1-ylmethyl-pyrrolidin-1-yl)-ethyl]-phenyl}-acrylamide]: half-maximal inhibition against HDAC-1 (IC50) was put at 380 nM.

Turning to `O=C(/C=C/c1ccc(CN2CCC[C@@H]2C(=O)N2CCc3ccccc32)cc1)NO` [Cpd 17, (E)-3-{4-[(R)-2-(2,3-Dihydro-indole-1-carbonyl)-pyrrolidin-1-ylmethyl]-phenyl}-N-hydroxy-acrylamide], the IC50 on HDAC-1 is 210 nM; with HCT116, 950 nM.

Turning to `O=C(/C=C/c1ccc(CN2CCC[C@H]2C(=O)N2CCc3ccccc32)cc1)NO` [Cpd 18, (E)-3-{4-[(S)-2-(2,3-Dihydro-indole-1-carbonyl)-pyrrolidin-1-ylmethyl]-phenyl}-N-hydroxy-acrylamide], the values for the IC50 against HDAC-1 and with HCT116 were 350 nM and 7000 nM, respectively.

On to `O=C(/C=C/c1ccc(CN2CCC[C@H]2CN2CCc3ccccc32)cc1)NO` [Cpd 19, (E)-3-{4-[(S)-2-(2,3-Dihydro-indol-1-ylmethyl)-pyrrolidin-1-ylmethyl]-phenyl}-N-hydroxy-acrylamide], for which the values for the IC50 on HDAC-1 and in the test on HCT116 were 36 nM and 100 nM, respectively.

Take `Cc1[nH]c2ccccc2c1C[C@H]1C[C@@H](O)CN1Cc1ccc(/C=C/C(=O)NO)cc1` [Cpd 20, (E)-N-Hydroxy-3-{4-[(2S,4R)-4-hydroxy-2-(2-methyl-1H-indol-3-ylmethyl)-pyrrolidin-1-ylmethyl]-phenyl}-acrylamide]: the IC50 at HDAC-1 is 0.6 nM; with HCT116 it was 1 nM.

For `Cc1[nH]c2ccccc2c1C[C@H]1C[C@H](O)CN1Cc1ccc(/C=C/C(=O)NO)cc1` [Cpd 21, (E)-N-Hydroxy-3-{4-[(2S,4S)-4-hydroxy-2-(2-methyl-1H-indol-3-ylmethyl)-pyrrolidin-l-ylmethyl]-phenyl}-acrylamide], the results for the IC50 against HDAC-1 and in the test with HCT116 were 0.7 nM and 1 nM, respectively.

Turning to `Cc1[nH]c2ccccc2c1C[C@H]1CCCN1Cc1ccc(/C=C/C(=O)NO)cn1` [Cpd 26, (E)-N-Hydroxy-3-{6-[(R)-2-(2-methyl-1H-indol-3-ylmethyl)-pyrrolidin-1-ylmethyl]-pyridin-3-yl}-acrylamide], on HDAC-1, the 50% inhibitory concentration (IC50) amounted to 1.7 nM.

Take `Cc1[nH]c2ccccc2c1C[C@H]1C[C@H](O)CN1Cc1ccc(/C=C/C(=O)NO)cn1` [Cpd 28, (E)-N-Hydroxy-3-{6-[(2S,4S)-4-hydroxy-2-(2-methyl-1H-indol-3-ylmethyl)-pyrrolidin-1-ylmethyl]-pyridin-3-yl}-acrylamide]: the IC50 at HDAC-1 came to 1.7 nM.

The compound `Cc1nn(-c2ccccc2)c(C)c1C[C@H]1C[C@H](O)CN1Cc1ccc(/C=C/C(=O)NO)cc1` [Cpd 33, (E)-3-{4-[(2S,4S)-2-(3,5-Dimethyl-1-phenyl-1H-pyrazol-4-ylmethyl)-4-hydroxy-pyrrolidin-1-ylmethyl]-phenyl}-N-hydroxy-acrylamide] registered a 50% inhibitory concentration (IC50) on HDAC-1 of 0.7 nM. This IC50 lies about 2.4-fold lower than the previous one.

For `Cc1nn(-c2ccccc2)c(C)c1C(O)[C@H]1C[C@H](O)CN1Cc1ccc(/C=C/C(=O)NO)cc1` (stereo partly drawn) [Cpd 34, (E)-3-(4-{(2R,4S)-2-[(3,5-Dimethyl-1-phenyl-1H-pyrazol-4-yl)-hydroxy-methyl]-4-hydroxy-pyrrolidin-1-ylmethyl}-phenyl)-N-hydroxy-acrylamide], 27 nM corresponded to half-maximal inhibition at HDAC-1 (IC50).

At HDAC-1, `O=C(/C=C/c1ccc(CN2CCC[C@@H]2Cc2nc(-c3ccccc3)no2)cc1)NO` [Cpd 39, (E)-N-Hydroxy-3-{4-[(R)-2-(3-phenyl-[1,2,4]oxadiazol-5-ylmethyl)-pyrrolidin-1-ylmethyl]-phenyl}-acrylamide] gave a half-inhibitory concentration (IC50) of 20 nM. The IC50 values of the last two compounds are within 1.5-fold of each other.

The compound `O=C(/C=C/c1ccc(CN2C[C@H](O)C[C@@H]2Cn2cc(-c3cccnc3)nn2)cc1)NO` [Cpd 41, (E)-N-Hydroxy-3-{4-[(2R,4R)-4-hydroxy-2-(4-pyridin-3-yl-[1,2,3]triazol-1-ylmethyl)-pyrrolidin-1-ylmethyl]-phenyl}-acrylamide] came in with an IC50 at HDAC-1 of 170 nM. Compared with the last compound, the IC50 is about 8.5-fold higher.

For the origin of these results see US20110060009A1, “Hydroxamate-Based Inhibitors of Deacetylases” (NOVARTIS AG, priority 2009, published 2011).
